Data reported in patent publication US9737525B2, “Small molecule activators of NRF2 pathway” (The General Hospital Corporation, priority 2013, dated 2017).

Key:
N9 microglial cells = assay: ROS/RNI assays in stimulated N9 microglial cells; type: cell-based; conditions: LPS- and TNFα-activated microglial cells, 20 hr
Description: N9 microglial cells were cultured in RPMI medium containing Glutamax (Invitrogen) and supplemented with 10% FBS (Endotoxin levels lower than 10 EU/ml). Cells were plated in 96 well plates (5×10^4 per well) and cultured overnight before stimulation with LPS (100 ng/ml) and TNFα (10 ng/ml) for 20 hr in medium supplemented with DMSO or with the tested compounds. ROS were detected by flow cytometry after microglia incubation with […] of 5-(and-6)-chloromethyl-2′,7′-dichlorodihydrofluorescein diacetate, acetyl ester (CM-H2DCFDA) (Invitrogen) for 20 min. The production of NO by iNOS was measured indirectly by assaying nitrites in the culture supernatant using the Griess reaction [Liu, 2013]. Briefly, […] of supernatants were incubated with equal amount of Griess reagent (1% sulphanilamide, 0.1% naphthylethylenediamine in 2% phosphoric acid solution) and the absorbance read at 550 nm after 20 min of incubation at room temperature.

[1] = system: LUHMES cells overexpressing aSyn; assay: Viability assay (adenylate kinase release) in differentiated LUHMES cells overexpressing aSyn; type: cell-based; conditions: 0.4 μM and 1 μM, 96 hr
Description: LUHMES cells were maintained as proliferating cultures and differentiated into post-mitotic-like neurons on Nunclon plates and flasks, pre-coated with 50 μg/mL poly-L-ornithine (Sigma) and 1 μg/mL fibronectin (Sigma). Specifically, 8×10^6 proliferating LUHMES cells were seeded into a T175 flask containing proliferation medium, consisting of advanced DEMEM/F12 (Invitrogen), 2 mM L-glutamine (Sigma-Aldrich), 1×N2 supplement (Invitrogen) and 40 ng/mL recombinant human bFGF (R&D Systems). After 24 hr, proliferation medium was replaced with differentiation medium, composed of advanced DMEM/F12 (Invitrogen), 2 mM L-glutamine (Sigma-Aldrich), 1×N2 supplement (Invitrogen), 1 mM dibutyryl 3′, 5′-cyclic adenosine monophosphate (Sigma-Aldrich), 2.25 μM tetracycline and 2 ng/mL recombinant human GDNF (R&D Systems). 48 hr later, cells were trypsinized and seeded into 24-well plates, containing 1 mL of differentiation medium and 250,000 cells/well.
For lenti-virus based expression the following transfer plasmids have been constructed. […] The measurement of transgene expression has been determined by qRT PCR using SYBR GREEN, after infection of 293-Hek-cells, and specific primers to the woodchuck hepatitis virus posttranscriptional regulatory element (WPRE) as described previously (PMID: 12718761). […]

Question: How did the “Production of RNI (nitrites in supernatants)” value (N9 microglial cells) turn out when `O=[N+]([O-])c1ccc(Sc2nnc(COc3ccccc3)n2-c2ccccc2)c2ncccc12` [MIND4, 5-nitro-8-{[5-(phenoxymethyl)-4-phenyl-4H-1,2,4-triazol-3-yl]thio}quinoline] was run?
Answer: reduced the production of RNI

Question: What about the ROS levels (N9 microglial cells) of the same compound?
Answer: reduced ROS levels

Question: And the “Protection against αSyn toxicity” value [1]?
Answer: only mild protection

Question: For `O=[N+]([O-])c1ccc(Sc2nnc(COc3ccccc3)n2-c2ccccc2)nc1` [MIND4-17], which “Production of RNI (nitrites in supernatants)” value (N9 microglial cells) is on record?
Answer: reduced the production of RNI

Question: What about the ROS levels (N9 microglial cells) of the same compound?
Answer: reduced ROS levels

Question: And the “Protection against αSyn toxicity” value [1]?
Answer: significant protective effects
